Bounds are passed on as bounds.

For experiment [1], the system named is CSF1R (M-NFS-60 cells). Put plainly: Cell Titer-Glo viability assay using M-NFS-60 cells. Type of experiment: cell-based. As to conditions: Mus musculus, read-out: Cellular CSF1R activity by M-NFS-60 viability assay (IC50 activity range). A digest of the protocol:
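M-NFS-60 cells grown with 62 ng/ml recombinant human M-CSF, seeded at 2×10^5 cells/well and incubated at 37 °C/5% CO2. Compounds given as 3-fold serial dilutions (10 doses); viability read by CellTiter-Glo luminescence, sigmoidal dose-response fit.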
(ATP-based viability assays read luminescence as a measure of living cells.)

The target in experiment [2] is T1, Axl (Homo sapiens, UniProt P30530).
T1 sequence (P30530 26-894): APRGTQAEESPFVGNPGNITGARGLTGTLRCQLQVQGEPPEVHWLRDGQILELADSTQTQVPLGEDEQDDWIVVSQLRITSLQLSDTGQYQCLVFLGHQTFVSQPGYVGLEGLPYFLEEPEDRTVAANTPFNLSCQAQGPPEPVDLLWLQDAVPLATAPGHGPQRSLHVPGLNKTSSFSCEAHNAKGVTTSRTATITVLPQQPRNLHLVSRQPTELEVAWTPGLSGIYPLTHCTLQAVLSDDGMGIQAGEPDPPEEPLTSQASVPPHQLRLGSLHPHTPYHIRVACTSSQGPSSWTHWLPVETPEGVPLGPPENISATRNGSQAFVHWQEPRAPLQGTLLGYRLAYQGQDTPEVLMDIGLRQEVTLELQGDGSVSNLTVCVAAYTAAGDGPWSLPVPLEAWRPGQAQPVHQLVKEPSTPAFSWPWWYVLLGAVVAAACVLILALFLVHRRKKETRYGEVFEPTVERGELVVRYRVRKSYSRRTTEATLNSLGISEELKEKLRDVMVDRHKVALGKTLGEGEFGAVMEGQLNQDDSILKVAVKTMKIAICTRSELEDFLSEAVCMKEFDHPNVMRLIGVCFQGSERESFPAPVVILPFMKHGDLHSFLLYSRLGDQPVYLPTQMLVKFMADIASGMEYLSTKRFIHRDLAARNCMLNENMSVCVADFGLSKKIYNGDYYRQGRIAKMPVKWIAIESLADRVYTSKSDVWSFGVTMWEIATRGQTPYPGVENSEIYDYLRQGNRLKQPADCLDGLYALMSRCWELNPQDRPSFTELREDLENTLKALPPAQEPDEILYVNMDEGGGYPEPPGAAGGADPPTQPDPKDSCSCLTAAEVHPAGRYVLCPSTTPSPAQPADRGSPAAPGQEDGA
Put plainly: Cellular Axl inhibition ELISA (p-Axl, Gas6-induced) using H1299 cells. Type of experiment: cell-based. The arrangement: especially H1299 cell endogenously expresses Axl; endogenous in cells; host or cells: H1299. The following applies: read-out: Cellular Axl activity by H1299 Elisa (IC50). A digest of the protocol:
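H1299 cells, seeded overnight, exposed 24 h at 37 °C to 10-point 3-fold compound dilutions, then stimulated with 200 ng/ml human Gas6 (final) for 1 h. Lysates assayed for p-Axl by sandwich ELISA with HRP/TMB, absorbance 450 nm; IC50 by sigmoidal dose-response fit.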

Turning to `COc1cc2nccc(Oc3ccc(NC(=O)c4nn(C5CC5)cc4OCC(F)(F)F)nc3)c2cc1OC` [Compound 5], the IC50 is < 1000 nM in experiment [1] and < 500 nM in experiment [2].
`COc1cc2nccc(Oc3ccc(NC(=O)c4nn(C5CCOC5)cc4OCC(F)(F)F)c(F)c3)c2cc1OC` (centres unmarked) [Compound 77]: the IC50 in experiment [1] was 1000 to 10000 nM; in experiment [2], < 500 nM.
Take `COc1cc2nccc(Oc3ccc(NC(=O)c4nn(C5CCNC5)cc4OCC(F)(F)F)cc3F)c2cc1OC` (centres unmarked) [Compound 78]: the 50% inhibitory concentration (IC50) in experiment [1] is 1000 to 10000 nM; in experiment [2], < 500 nM.
On to `COc1cc2nccc(Oc3ccc(NC(=O)c4nn(CCN)cc4OCC(F)(F)F)cc3F)c2cc1OC` [Compound 79], for which the figures for the IC50 in experiment [1] and in experiment [2] were 1000 to 10000 nM and < 500 nM, respectively.
For the compound `COc1cc2nccc(Oc3ccc(NC(=O)c4nn(CC(C)O)cc4OCC(F)(F)F)cc3F)c2cc1OC` (centres unmarked) [Compound 80], the IC50 in experiment [1] was 1000 to 10000 nM; in experiment [2], < 500 nM.
As to `COc1cc2nccc(Oc3ccc(NC(=O)c4nn(C5CCNC5)cc4OCC(F)(F)F)cc3C)c2cc1OC` (centres unmarked) [Compound 81], the figures for the IC50 in experiment [1] and in experiment [2] were 1000 to 10000 nM and ≥ 1000 nM, respectively.
Turning to `COc1cc2nccc(Oc3ccc(NC(=O)c4nn(CCN)cc4OCC(F)(F)F)cc3C)c2cc1OC` [Compound 82], the IC50 in experiment [1] is 1000 to 10000 nM; in experiment [2] it was ≥ 1000 nM.
With `COc1cc2nccc(Oc3ccc(NC(=O)c4nn(CC(C)O)cc4OCC(F)(F)F)cc3C)c2cc1OC` (centres unmarked) [Compound 83], the IC50 in experiment [1] is 1000 to 10000 nM; in experiment [2], < 500 nM.
For `COCCn1cc(OCC(F)(F)F)c(C(=O)Nc2ccc(Oc3ccnc4cc(OC)c(OC)cc34)c(C)c2)n1` [Compound 84], the IC50 in experiment [1] is 1000 to 10000 nM; in experiment [2] it was < 500 nM.
The matching figures for `COc1cc2nccc(Oc3ccc(NC(=O)c4nn(C5CCOC5)cc4OCC(F)(F)F)cc3C)c2cc1OC` (centres unmarked) [Compound 85]: 1000 to 10000 nM and < 500 nM.
With `COc1cc2nccc(Oc3ccc(NC(=O)c4nn(C5CCNC5)cc4OCC(F)(F)F)cc3)c2cc1OC` (centres unmarked) [Compound 86], the IC50 in experiment [1] is 1000 to 10000 nM; in experiment [2], < 500 nM.
On to `COc1cc2nccc(Oc3ccc(NC(=O)c4nn(CC(C)C)cc4OCC(F)(F)F)cc3)c2cc1OC` [Compound 87], for which the IC50 in experiment [1] was 1000 to 10000 nM; in experiment [2], < 500 nM.
On to `COc1cc2nccc(Oc3ccc(NC(=O)c4nn(CCN)cc4OCC(F)(F)F)cc3)c2cc1OC` [Compound 88], for which the IC50 is 1000 to 10000 nM in experiment [1] and 500 to 1000 nM in experiment [2].
Regarding `COc1cc2nccc(Oc3ccc(NC(=O)c4nn(CC(C)O)cc4OCC(F)(F)F)cc3)c2cc1OC` (centres unmarked) [Compound 89], the results for the IC50 in experiment [1] and in experiment [2] were 1000 to 10000 nM and < 500 nM, respectively.
As to `COc1cc2nccc(Oc3ccc(NC(=O)c4nn(C5CCOCC5)cc4OCC(F)(F)F)nc3)c2cc1OC` [Compound 90], the IC50 was < 1000 nM in experiment [1] and < 500 nM in experiment [2].
The matching figures for `COc1cc2nccc(Oc3ccc(NC(=O)c4nn(C5CCN(C)C5)cc4OCC(F)(F)F)nc3)c2cc1OC` (centres unmarked) [Compound 91]: < 1000 nM and < 500 nM.
Consider `COc1cc2nccc(Oc3ccc(NC(=O)c4nn(CCC5CCCC5)cc4OCC(F)(F)F)nc3)c2cc1OC` [Compound 93], for which the IC50 in experiment [1] was < 1000 nM; in experiment [2], < 500 nM.
For the compound `COc1cc2nccc(Oc3ccc(NC(=O)c4nn(C5CCN(C)C5)cc4OCC(F)(F)F)c(F)c3)c2cc1OC` (centres unmarked) [Compound 94], the IC50 in experiment [1] is 1000 to 10000 nM; in experiment [2], < 500 nM.
Turning to `COc1cc2nccc(Oc3ccc(NC(=O)c4nn(CC5COC5)cc4OCC(F)(F)F)c(F)c3)c2cc1OC` [Compound 95], the IC50 in experiment [1] is 1000 to 10000 nM; in experiment [2], < 500 nM.

As a reminder, the IC50 is the concentration that gives 50% inhibition.

Values taken from patent publication US12162858B2, “Quinoline derivatives as inhibitors of AXL/MER RTK and CSF1R” (QURIENT CO., LTD., priority 2018, dated 2024).
